The values below come from BindingDB's records for doi:10.1021/jm00100a033 (Roche Research Center, 1992).

pIC50: −log10 of the molar value. *1 amine or outer side, *2 acyl side, *3 side chain or, on linkers, in order; H or OH if unused. Where a SMILES comes first, the peptide text is derived from it. Side-chain parts run from the residue outwards. [ ]: non-standard residue; d: D form. The star is where a group is joined. ξ: configuration not given here. Thz(5,5-Me2) = CC1(C)SCN[C@@H]1C(=O)O; NH(2-Me-phenyl) = Cc1ccccc1N*; ξF = NC(Cc1ccccc1)C(=O)O; Boc = CC(C)(C)OC(=O)*; CO = O=C([*:1])[*:2]

This test has as its target Gastrin/cholecystokinin type B receptor (Bos taurus). The experiment in a line: Inhibitory activity against cholecystokinin type B receptor from bovine striatal binding assay.

Consider `Cc1ccccc1NC(=O)NCCCC[C@H](NC(=O)[C@H](Cc1c[nH]c2ccccc12)NC(=O)OC(C)(C)C)C(=O)N1CSC(C)(C)[C@H]1C(=O)NC(Cc1ccccc1)C(N)=O` (stereo partly specified) [[1-[1-[4-(1-Carbamoyl-2-phenyl-ethylcarbamoyl)-5,5-dimethyl-thiazolidine-3-carbonyl]-5-(3-o-tolyl-ureido)-pentylcarbamoyl]-2-(1H-indol-3-yl)-ethyl]-carbamic acid tert-butyl ester] (Boc-WK([CO-NH(2-Me-phenyl)])[Thz(5,5-Me2)][ξF]-NH2), for which the pIC50 (commonly −log10 of the IC50, conventionally taken in molar units) was 5.13.
